# Measured values from patent publication US20230172971A1, “ANTIBIOTIC AND ANTI-INFLAMMATORY COMPOSITIONS AND METHODS OF USE” (priority 2020, published 2023).
# Where two headings read alike, the source gives them in different places.
# How the values were obtained:
# [1] = test system: HEKa cells (primary human epithelial keratinocytes); assay: Cytokine release (IL-8, IL-6, TNF-alpha) by HEKa cells, Quantikine ELISA; type: cell-based; conditions: PG or LPS 5 μg/mL, 24 hr; for TNF-α concentration released by HEKa cells: untreated control <10; for IL-6 concentration released by HEKa cells: untreated control <50
# Procedure: (§1) Materials included HEKa cells (primary human epithelial keratinocytes; Invitrogen), Epilife Medium and growth supplement (Invitrogen), lipopolysaccharides from Escherichia coli O111:B4 (Sigma), peptidoglycan from Staphylococcus aureus (Sigma), and Human (IL-8/CXCL8, IL-6, TNF-alpha) Quantikine ELISA Kits (R&D). HEKa cells were seeded in T-75 tissue culture flasks with Epilife media supplemented with human keratinocyte growth supplement 100 ug/mL and 100 U/mL of pen/strep and incubated at 37° C. in a CO2 incubator. Fresh media was replaced every 2 days. Until the cell confluence reach 80-90%, they were split into a new passage. To avoid cell senescence, all experiments were performed with cells at passage 3-7. HEKa cells were cultured in a new 24-well plate until 80-90% confluence (total V=1 mL/well). […] The cell media was collected in 1.5 mL Eppendorf microtubes and stored at −20° C. until ELISA assays were performed. Concentrations of IL-8, IL-6, TNF-α cytokines released into the media were quantified followed the instructions of Quantikine Colorimetric ELISA assay kits (R&D Systems). Absorbance was measured at 450 nm and 570 nm. Final corrected absorbance was the subtraction […].
# as §1, with “HEKa” for “Materials included HEKa cells (primary human epithelial keratinocytes; Invitrogen), Epilife Medium and growth supplement (Invitrogen), lipopolysaccharides from Escherichia coli O111:B4 (Sigma), peptidoglycan from Staphylococcus aureus (Sigma), and Human (IL-8/CXCL8, IL-6, TNF-alpha) Quantikine ELISA Kits (R&D). HEKa”, “senescent,” for “senescence,”, “volume=1” for “V=1”, “IL-8 cytokine” for “IL-8, IL-6, TNF-α cytokines”
# MRSA OU6 [2] = assay: MicroScan Walkaway MIC panel, MRSA OU6; type: cell-based, Staphylococcus aureus; conditions: for MIC: Staphylococcus aureus
# From the text: (§2) The multi-drug resistance characteristics of the clinical isolates was confirmed using the Beckman Coulter MicroScan Walkaway™ 96plus with the PC33 gram positive panel. The MIC values are listed below.
# MRSA OU11 [3] = assay: MicroScan Walkaway MIC panel, MRSA OU11; type: cell-based, Staphylococcus aureus; conditions: for MIC: Staphylococcus aureus
# From the text: as §2
# PA OU19 [4] = assay: MicroScan Walkaway MIC panel, PA OU19; type: cell-based, P. aeruginosa
# K. pneumoniae BAA-2146 = assay: Checkerboard assay, CRE K. pneumoniae BAA-2146 (NDM-1); type: cell-based, Klebsiella pneumoniae; conditions: NDM-1 strain; over the susceptibility breakpoint
# Procedure: (§3) Checkerboard assays were used to determine the synergistic effect between PEG350-BPEI or 600 Da BPEI and antibiotics against drug resistant strains growing in cation-adjusted Mueller-Hinton broth (CAMHB). […] Cells were grown at 37° C. The change in OD600 (optical density at 600 nm) was measured and recorded after 24 hr of treatment. Each checkerboard trial was done in triplicate using sterile Greiner CellStar™ flat bottom polystyrene plates, catalog #655180.
# E. coli BAA-2452 = assay: Checkerboard assay, CRE E. coli BAA-2452 (NDM-1); type: cell-based, Escherichia coli; conditions: NDM-1 strain; over the susceptibility breakpoint
# Procedure: as §3
# [5] = test system: Pseudomonas aeruginosa strain BAA-47; assay: Checkerboard assay azithromycin + 600-Da BPEI, P. aeruginosa BAA-47; type: cell-based
# Procedure: (§4) Checkerboard assays were conducted to identify synergy between BPEI and antibiotics against bacteria. Serial dilutions of antimicrobial agents (BPEI and antibiotic solutions) were added to a 96-well microtiter plate with 100 μL CAMHB per well. Untreated control and positive control (5% bleach) were also conducted. Bacterial inoculation (5×10^5 CFU/mL) from an overnight culture was added to the plate (1 μL/well) and incubated at 37° C. for 20 hr. The change in optical density at 600 nm (ΔOD600) was measured using a Tecan Infinite M20 plate reader immediately after inoculation Minimum inhibitory concentration (MIC) of each drug is determined as the lowest concentration that inhibited cell growth (ΔOD600<0.05). Fractional inhibitory concentration index (FICI) and synergistic effects are determined using EUCAST guidelines: synergy (FICI≤0.5), additivity (0.5<FICI<1), and indifference (FICI>1). Each assay was done in triplicate.
# [6] = test system: K. pneumoniae BAA-1705(blaKPC+/blaNDM−); assay: Checkerboard assay, CRE K. pneumoniae BAA-1705 (blaKPC+/blaNDM-); type: cell-based, Klebsiella pneumoniae; conditions: FIGS. 11A and 11C
# Procedure: as §3
# MRSA OU6 [7] = assay: Checkerboard assay erythromycin + 600-Da BPEI, MRSA OU6; type: cell-based, Staphylococcus aureus; conditions: for MIC Antibiotic: MRSA OU6, antibiotic alone
# Procedure: as §4
# MRSA OU11 [8] = assay: Checkerboard assay erythromycin + 600-Da BPEI, MRSA OU11; type: cell-based, Staphylococcus aureus; conditions: for MIC Antibiotic: MRSA OU11, antibiotic alone
# Procedure: as §4
# PA OU19 [9] = assay: Checkerboard assay erythromycin + 600-Da BPEI, PA OU19; type: cell-based, P. aeruginosa
# Procedure: as §4
# [10] = MRSA OU6, MicroScan, read-out: MIC
# [11] = MRSA OU11, MicroScan, read-out: MIC
# [12] = Pseudomonas aeruginosa, read-out: MIC
# [13] = MRSA OU6, erythromycin + 600-Da BPEI
# [14] = MRSA OU11, erythromycin + 600-Da BPEI
# [15] = PA OU19, erythromycin + 600-Da BPEI
Compound,MIC (MRSA OU6 [2]; [10]),MIC (MRSA OU11 [3]; [11]),"susceptibility interpretation (MRSA OU6 [2]; MRSA OU6, MicroScan)","susceptibility interpretation (MRSA OU11 [3]; MRSA OU11, MicroScan)",susceptibility interpretation (PA OU19 [4]),other results
lipopolysaccharide [LPS],–,–,–,–,–,TNF-α concentration released by HEKa cells [1]: ~30 pg/mL; IL-6 concentration released by HEKa cells [1]: ~350 pg/mL
CCC[C@@H]1C[C@@H](C(=O)N[C@@H]([C@H]2O[C@H](SC)[C@H](O)[C@@H](O)[C@H]2O)[C@H](C)Cl)N(C)C1 [clindamycin],> 4 µg/mL,> 4 µg/mL,–,–,–,–
CC(=O)NC[C@H]1CN(c2ccc(N3CCOCC3)c(F)c2)C(=O)O1 [linezolid],2 µg/mL,2 µg/mL,susceptible,susceptible,–,–
NC[C@H]1O[C@H](O[C@H]2[C@H](O)[C@@H](O[C@H]3O[C@H](CO)[C@@H](O)[C@H](N)[C@H]3O)[C@H](N)C[C@@H]2N)[C@H](N)C[C@@H]1O [tobramycin],–,–,–,–,susceptible,MIC (PA OU19 [4]; [12]): 4 µg/mL
CC(C)(O/N=C(\C(=O)N[C@@H]1C(=O)N2C(C(=O)[O-])=C(C[n+]3ccccc3)CS[C@H]12)c1csc(N)n1)C(=O)O [ceftazidime],–,–,–,–,resistant,MIC (PA OU19 [4]; [12]): 16 µg/mL
C[C@H]1[C@H](NC(=O)/C(=N\OC(C)(C)C(=O)O)c2csc(N)n2)C(=O)N1S(=O)(=O)O [aztreonam],–,–,–,–,resistant,MIC (PA OU19 [4]; [12]): 16 µg/mL
C[C@@H](O)[C@H]1C(=O)N2C(C(=O)O)=C(SCCN=CN)C[C@H]12 [imipenem],–,–,–,–,–,MIC of the carbapenem without potentiator (K. pneumoniae BAA-2146): > 2 µg/mL; MIC of the carbapenem without potentiator (E. coli BAA-2452): > 2 µg/mL
peptidoglycan [PG],–,–,–,–,–,TNF-α concentration released by HEKa cells [1]: ~30 pg/mL; IL-6 concentration released by HEKa cells [1]: ~350 pg/mL
CC[C@H]1OC(=O)[C@H](C)[C@@H](O[C@H]2C[C@@](C)(OC)[C@@H](O)[C@H](C)O2)[C@H](C)[C@@H](O[C@@H]2O[C@H](C)C[C@H](N(C)C)[C@H]2O)[C@](C)(O)C[C@@H](C)CN(C)[C@H](C)[C@@H](O)[C@]1(C)O [azithromycin],–,–,–,–,–,growth inhibition by the combination with 600-Da BPEI [5]: inhibits growth
CN[C@H](CC(C)C)C(=O)N[C@H]1C(=O)N[C@@H](CC(N)=O)C(=O)N[C@H]2C(=O)N[C@H]3C(=O)N[C@H](C(=O)N[C@H](C(=O)O)c4cc(O)cc(O)c4-c4cc3ccc4O)[C@H](O)c3ccc(c(Cl)c3)Oc3cc2cc(c3O[C@@H]2O[C@H](CO)[C@@H](O)[C@H](O)[C@H]2O[C@H]2C[C@](C)(N)[C@H](O)[C@H](C)O2)Oc2ccc(cc2Cl)[C@H]1O [vancomycin],–,–,susceptible,susceptible,–,MIC (MRSA OU6 [2]; MRSA): 2 µg/mL; MIC (MRSA OU11 [3]; MRSA): 1 µg/mL
CCCCCCCCCC(=O)N[C@@H](Cc1c[nH]c2ccccc12)C(=O)N[C@H](CC(N)=O)C(=O)N[C@@H](CC(=O)O)C(=O)N[C@@H]1C(=O)NCC(=O)N[C@@H](CCCN)C(=O)N[C@@H](CC(=O)O)C(=O)N[C@H](C)C(=O)N[C@@H](CC(=O)O)C(=O)NCC(=O)N[C@H](CO)C(=O)N[C@@H]([C@H](C)CC(=O)O)C(=O)N[C@@H](CC(=O)c2ccccc2N)C(=O)O[C@@H]1C [daptomycin],≤ 0.5 µg/mL,≤ 0.5 µg/mL,susceptible,susceptible,–,–
CN(C)[C@@H]1C(O)=C(C(N)=O)C(=O)[C@@]2(O)C(O)=C3C(=O)c4c(O)cccc4[C@@](C)(O)[C@H]3C[C@@H]12 [tetracycline],≤ 4 µg/mL,≤ 4 µg/mL,–,–,–,–
gentamicin,–,–,susceptible,susceptible,susceptible,MIC (PA OU19 [4]): 4 µg/mL
Cc1onc(-c2ccccc2)c1C(=O)N[C@@H]1C(=O)N2[C@@H]1SC(C)(C)[C@@H]2C(=O)O [oxacillin],> 2 µg/mL,> 2 µg/mL,resistant,resistant,–,–
C[C@@H](O)[C@H]1C(=O)N2C(C(=O)O)=C(S[C@@H]3CN[C@H](C(=O)N(C)C)C3)[C@H](C)[C@H]12 [meropenem],–,–,–,–,resistant,MIC of the carbapenem without potentiator (K. pneumoniae BAA-2146): > 8 µg/mL; MIC of the carbapenem without potentiator (E. coli BAA-2452): > 8 µg/mL; susceptibility of the strain to the carbapenem [6]: resistant; MIC (PA OU19 [4]; [12]): 8 µg/mL
CC[C@H]1OC(=O)[C@H](C)[C@@H](O[C@H]2C[C@@](C)(OC)[C@@H](O)[C@H](C)O2)[C@H](C)[C@@H](O[C@@H]2O[C@H](C)C[C@H](N(C)C)[C@H]2O)[C@](C)(O)C[C@@H](C)C(=O)[C@H](C)[C@@H](O)[C@]1(C)O [erythromycin],> 4 µg/mL,> 4 µg/mL,resistant,resistant,–,"MIC Antibiotic (MRSA OU6 [7]): over 2000 μg/mL; MIC Antibiotic (MRSA OU6 [7]; listed as Erythromycin): >2000 µg/mL; FICI (MRSA OU6 [7]; [13]): 0.26; Outcome (MRSA OU6 [7]; [13]): Synergy; MIC Antibiotic with 16 μg/ml BPEI (MRSA OU6 [7]; MRSA OU6, with 16 μg/ml 600-Da BPEI): 8 µg/mL; MIC Antibiotic (MRSA OU11 [8]): over 2000 μg/mL; MIC Antibiotic (MRSA OU11 [8]; listed as Erythromycin): >2000 µg/mL; FICI (MRSA OU11 [8]; [14]): 0.31; Outcome (MRSA OU11 [8]; [14]): Synergy; FICI (PA OU19 [9]; [15]): 0.26; Outcome (PA OU19 [9]; [15]): Synergy; MIC Antibiotic with 16 μg/ml BPEI (PA OU19 [9]; PA OU19, with 16 μg/ml 600-Da BPEI): 2 µg/mL"
CO/N=C(\C(=O)N[C@@H]1C(=O)N2C(C(=O)[O-])=C(C[N+]3(C)CCCC3)CS[C@H]12)c1csc(N)n1 [cefepime],–,–,–,–,resistant,MIC (PA OU19 [4]; [12]): 16 µg/mL
